One test relates to liver gene expression. The test can be described thus: Liver fibrogenic gene expression after oral (gavage) dosing in bleomycin-treated mice. In kind it is in vivo, mouse. The settings on record: female C57BL6 mice, 30 mg/kg po once daily day −1 to 3, 3 days after transnasal bleomycin. The protocol: FIG. 11. The effects of oral (gavage) PF670462 or […] were investigated in female C57BL6 mice, with a focus on liver gene expression. […] Data are presented as mean±SEM (n=4). In studies to ascertain the effect of oral administration of either PF670462 or SS8-058 we harvested the liver on day 3 from mice that had been treated transnasally with bleomycin on day 0 to measure gene expression of products that are implicated in fibrogenesis. Mice were treated once daily by gavage from day −1 to day 3 with either PF670462 or SS8-058 (30 mg/kg, po).

The subject of test [1] is PAI-1 gene expression in BEAS-2B cells. As to the kind of experiment: TNF-α and TGF-β induced PAI-1 gene expression in BEAS-2B cells (RT-qPCR). It counts as cell-based. Particulars: for TNFa stimulated PAI-1 expression: 30 min pretreatment 1-10 μM, n=1, similar potency and maxima. As for the experimental part: The primary assay for the activity of the novel CK1δ/ε inhibitors is the modulation of gene expression in the airway epithelial cell line, the BEAS-2B cells. The assay is conducted under several conditions. Generally, TGF-β or TNF-α is used to elicit fibrogenic or inflammatory genes, respectively. The agents are added at a concentration of 10 μM, or at the indicated concentrations for a period of 30 min prior to the addition of TGF-β/TNF-α which are incubated for a further 20 hours before the addition, in some experiments of the glucocorticoid, dexamethasone (Dex, 30 nM) for the final 4 hours of the experiment, prior to harvest of cellular RNA to measure by RT-qPCR the levels of mRNA of marker genes for inflammation and fibrogenesis. The inhaled corticosteroid (ICS), budesonide is also used in some experiments. Furthermore, the supernatants are harvested at the end of the incubation periods in selected experiments to measure the levels of CSF-2 or IL-8 by ELISA as described in (Tran et al. (2005) British Journal of Pharmacology, 145, 123-131). Prior to experimentation, BEAS-2B and A549 cells were incubated in serum-free DMEM containing 0.25% bovine serum albumin (BSA) and insulin-transferrin-selenium—containing supplement (Monomed A; CSL, Parkville, Melbourne, Australia). Where indicated, cells were treated with one of the series of synthesised compounds (0.3-10 μM) prior to exposure to 100 pM TGF-β1 (R&D Systems, Minneapolis, Minn.) or 300 pM bFGF (Promega, Madison, Wis.). Total RNA was extracted from cultured cells using illustra RNAspin Mini RNA Isolation Kit (GE Healthcare). RNA extracts were reverse-transcribed into cDNA using High-Capacity RNA-to-cDNA Kit (Applied Biosystems). Real-time PCR was then performed using a QuantStudio 6 Flex Real-Time PCR System using iTaq Universal SYBR green supermix and the following thermal protocol: 50° C. (2 min), 95° C. (10 min), then 40 cycles of 95° C. (15 sec), 60° C. (1 min). The threshold cycle (CT) values determined for target genes were normalized against those obtained for 18S ribosomal RNA (18S rRNA), which was included as internal control. The generation of specific PCR products was confirmed by dissociation curve analysis. In the same experiment as described in FIG. 1, the expression of the fibrogen plasminogen activator inhibitor-1 was measured (see FIG. 2). The levels of this gene are increased by both TGF-β and by Dex and they synergise when added together. The CK1 inhibitors concentration-dependently reduce the effects of each of the stimuli and further reduce baseline expression. Their potency in this effect is similar, regardless of the condition being considered. In a separate experiment BEAS-2B cells were exposed to TNF-α with(out) 30 min pretreatment with either SS9-010 or PF670462 (1-10 μM). RNA was then extracted and analyzed by RT-qPCR. Each agent inhibited TNFa stimulated PAI-1 expression with similar potency and maxima (see FIG. 3). Data are presented as mean±SD for n=1 (three technical replicates).
In general terms: In qPCR the cycle at which signal appears reflects the starting amount.

Test [2] relates to TNF-stimulated BEAS-2B cells. The test can be described thus: TNF-α-induced IL-8 and CSF-2 (GM-CSF) mRNA and supernatant protein in BEAS-2B cells (RT-qPCR, ELISA). Particulars: 1-10 μM 30 min prior to TNF-α 10 ng/ml 24 h, maximal at lowest concentration. In kind it is cell-based. As for the experimental part:
The primary assay for the activity of the novel CK1δ/ε inhibitors is the modulation of gene expression in the airway epithelial cell line, the BEAS-2B cells. The assay is conducted under several conditions. Generally, TGF-β or TNF-α is used to elicit fibrogenic or inflammatory genes, respectively. The agents are added at a concentration of 10 μM, or at the indicated concentrations for a period of 30 min prior to the addition of TGF-β/TNF-α which are incubated for a further 20 hours before the addition, in some experiments of the glucocorticoid, dexamethasone (Dex, 30 nM) for the final 4 hours of the experiment, prior to harvest of cellular RNA to measure by RT-qPCR the levels of mRNA of marker genes for inflammation and fibrogenesis. The inhaled corticosteroid (ICS), budesonide is also used in some experiments. Furthermore, the supernatants are harvested at the end of the incubation periods in selected experiments to measure the levels of CSF-2 or IL-8 by ELISA as described in (Tran et al. (2005) British Journal of Pharmacology, 145, 123-131). […] The threshold cycle (CT) values determined for target genes were normalized against those obtained for 18S ribosomal RNA (18S rRNA), which was included as internal control. […] RNA was extracted and measured by RT-qPCR. Pro-inflammatory cytokines in the supernatants were measured by ELISA. […]

Turning to `CCCCCCCCN1CCC(n2cnc(-c3ccc(F)cc3)c2-c2ccnc(N)n2)CC1` [SS8-058, 4-(4-(4-Fluorophenyl)-1-[1-octylpiperidin-4-yl]-1H-imidazol-5-yl)pyrimidin-2-amine], in the test on liver gene expression, the “liver baseline mRNA level of PAI-1” value was “significant reductions” and the “liver baseline mRNA level of TMP1” value is recorded as “significant reductions”. Further, in test [1] (agent 10 μM), the “PAI-1 mRNA level, TGF-β” value was 9.14 ± 1.23 fold control; the “PAI-1 mRNA level, TNF-α (n = 2)” value is on record as 0.91 fold control; the “PAI-1 mRNA level, vehicle (no stimulus)” value worked out at 0.37 ± 0.04 fold control.
`CNc1nccc(-c2c(-c3ccc(F)cc3)ncn2C2CCCCC2)n1` [SS9-010, 4-(1-Cyclohexyl-4-(4-fluorophenyl)-1H-imidazol-5-yl)-N-methylpyrimidin-2-amine]: in test [2], the “TNF-α-induced IL-8 expression and immunoreactive IL-8 in supernatant” value is on record as “active inhibitors”. Further, the “TNFa stimulated PAI-1 expression” value in test [1] is given as “inhibited”. Moreover, in test [1] (agent 10 μM), the “PAI-1 mRNA level, TGF-β” value came out at 0.64 ± 0.05 fold control; the “PAI-1 mRNA level, TNF-α (n = 2)” value stood at 0.43 fold control; the “PAI-1 mRNA level, vehicle (no stimulus)” value worked out at 0.18 ± 0.00 fold control.
For the molecule `Cl.Nc1nccc(-c2c(-c3ccc(F)cc3)ncn2C2CCCCC2)n1` [PF670462, 4-(1-Cyclohexyl-4-(4-fluorophenyl)-1H-imidazol-5-yl)pyrimidin-2-amine hydrochloride, reference compound], in the test on liver gene expression, the “liver baseline mRNA level of PAI-1” value is listed as “significant reductions” and the “liver baseline mRNA level of TMP1” value is listed as “significant reductions”. Further, the “TNF-α-induced IL-8 expression and immunoreactive IL-8 in supernatant” value in test [2] was “active inhibitors”. Moreover, in test [1], the “TNFa stimulated PAI-1 expression” value is recorded as “inhibited”. For the same molecule, in test [1] (agent 3 μM), the “PAI-1 mRNA level, TGF-β” value stood at 1.30 ± 0.18 fold control and the “PAI-1 mRNA level, TNF-α (n = 2)” value was determined as 0.74 fold control. Further, in test [1] (agent 10 μM), the “PAI-1 mRNA level, TGF-β” value was determined as 1.64 ± 0.27 fold control; the “PAI-1 mRNA level, TNF-α (n = 2)” value is 0.47 fold control; the “PAI-1 mRNA level, vehicle (no stimulus)” value amounted to 0.26 ± 0.04 fold control.

Values taken from patent publication US20200079757A1, “COMPOUNDS FOR THE TREATMENT OF RESPIRATORY DISEASES” (THE UNIVERSITY OF MELBOURNE, priority 2017, published 2020).
